For one data set, the system named is HOS.CD4.CCR5 cells. As to the kind of experiment: MTT. In kind it is cell-based. As to conditions: concentrations 50 fold higher than IC50 values, 24 hours continuous cellular exposure.
Data set [1] deals with viruses pseudotyped with vesicular stomatitis virus glycoprotein, VSV-G. The format is cell-based.
In the next data set the test system is chymotrypsin. As to conditions: cited from earlier work.
Another data set relates to trypsin. The note with it: cited from earlier work.
Data set [2] in a line: In vitro stability to proteolysis in human serum. The note with it: 24 h treatment, 37 °C, RP-HPLC 280 nm. In kind it is in vitro ADME.
The conditions of data set [3]: rat, in vivo; cited from earlier work.
The nature of data set [4]: Pharmacokinetic analysis after intravenous bolus in rats. The format is in vivo, Sprague-Dawley rats.

Peptide text beside a SMILES is read from it.

Regarding `CC[C@H](C)[C@@H]1NC(=O)[C@H](CC(N)=O)NC(=O)[C@@H](N)CC(=O)NCCCC[C@@H](C(N)=O)NC(=O)[C@H](Cc2c[nH]c3ccccc23)NC(=O)[C@@H]2C[C@H](n3cc(C4=CC=C[CH]4[Fe][CH]4C=CC=C4)nn3)CN2C1=O` (stereo partly shown) [AAR029b] (HELM PEPTIDE1{D.N.I.[O=C([C@@H]1C[C@H](n2cc(C3=CC=C[CH]3[Fe][CH]3C=CC=C3)nn2)CN1[*:1])[*:2]].W.K.[am]}$PEPTIDE1,PEPTIDE1,1:R3-6:R3$$$V2.0; N-terminus and C-terminus assumed), the “Toxicity in target HOS.CD4.CCR5 cells” value in the data set with HOS.CD4.CCR5 cells is listed as “No toxicity”. In data set [1], the “Inhibition of VSV-G pseudotyped virus” value is “did not inhibit”. Also, the “Resistance to proteolysis by chymotrypsin” value in the data set on chymotrypsin is “resistant to proteolysis”. Also, the “Resistance to proteolysis by trypsin” value in the data set on trypsin is “resistant to proteolysis”. In data set [2], the “Stability to human serum protease mixture” value was “intact”.

In the case of `COc1ccnc2[nH]cc(C(=O)C(=O)N3CCN(C(=O)c4ccccc4)C[C@H]3C)c12` [BMS-378806], the Clearance rate in data set [3] was ~ 1800 mL/h.

In the case of `CC[C@H](C)[C@@H]1NC(=O)[C@H](CC(N)=O)NC(=O)[C@@H](NC(=S)Nc2ccc3c(c2)C(=O)OC32c3ccc(O)cc3Oc3cc(O)ccc32)CC(=O)NCCCC[C@@H](C(N)=O)NC(=O)[C@H](Cc2c[nH]c3ccccc23)NC(=O)[C@@H]2C[C@H](n3cc(C4=CC=C[CH]4[Fe][CH]4C=CC=C4)nn3)CN2C1=O` (stereo partly shown) [FITC-AAR029b] (HELM PEPTIDE1{[O=C1OC2(c3ccc(O)cc3Oc3cc(O)ccc32)c2ccc(NC(=S)[*:2])cc21].D.N.I.[O=C([C@@H]1C[C@H](n2cc(C3=CC=C[CH]3[Fe][CH]3C=CC=C3)nn2)CN1[*:1])[*:2]].W.K.[am]}$PEPTIDE1,PEPTIDE1,2:R3-7:R3$$$V2.0; C-terminus assumed), the “Time over which plasma level was detectable” value in data set [4] (after tail vein administration to rats, fluorescence) is ≤ 7 h. Besides, the AUC(0-inf) in data set [4] (rat, in vivo, iv, 0.01 mg/kg) was found to be 40 ± 40 ng·h/mL. The Vd in data set [4] (rat, in vivo, iv, 0.01 mg/kg) stood at 0.542 ± 0.119 L. In addition, the clearance in data set [4] (rat, in vivo, iv, 0.01 mg/kg, CL (ml/h), clearance, intravenous bolus 0.01 mg/kg FITC (equiv), Sprague-Dawley rats) was 2.27 mL/min. Also, the half-life in data set [4] (rat, in vivo, iv, 0.01 mg/kg, t1/2α (h), distribution half life, intravenous bolus 0.01 mg/kg FITC (equiv), Sprague-Dawley rats) was 0.029 ± 0.01 h; in data set [4] (rat, in vivo, iv, 0.01 mg/kg, t1/2β (h), elimination half life, intravenous bolus 0.01 mg/kg FITC (equiv), Sprague-Dawley rats), ~3 h. Also, the “Stability to human serum protease mixture” value in data set [2] is “intact”.

The AUC(0-inf) is the area under the concentration-time curve extrapolated to infinity. The low end stands for less exposure, the high end for more exposure. For orientation: Vd means a proportionality between amount in the body and measured concentration, not a real space. Usually clearance stands for the volume of plasma or blood freed of the substance per unit of time. The half-life is the time in which the quantity being followed falls by half.

The record behind these values is paper PMC6467816 (Journal of peptide science : an official publication of the …, 2019).
